Assay results taken from paper PMC10845951, “Characterization of a selective, iron-chelating antifungal compound that disrupts fungal metabolism and synergizes with fluconazole” (Microbiology Spectrum, 2024).

Test system: C. glabrata gene expression
Experiment: RNA sequencing (gene regulation)
Format: cell-based, Candida glabrata
Conditions: for Log2 Fold-Change: vs DMSO; for Regulation Status: 26CvsDMSO
Protocol: Cells from overnight precultures in YPD medium were reinoculated in fresh YNB −iron medium (see “Culture maintenance” for contents) without iron and grown until OD600 of 0.4. […] Cells were collected from three independent experiments, snap frozen, and stored at −80°C. Total RNA purification was performed as previously described using the RNeasy Mini Kit (74104, Qiagen), and gDNA removal was made using the RNase-Free DNase Set kit (79254, Qiagen). RNA quantification and quality control were done with a Tape Station 4150 (Agilent) ([59]).
Library preparation and sequencing were performed at GenomEast (IGBMC, Illkirch, France). One DMSO 0.05% sample was excluded from the analysis due to insufficient quality. The library was sequenced on Illumina Hiseq 4000 sequencer as single-read 50-base reads following Illumina’s instructions. Reads were pre-processed in order to remove adapter, polyA, and low-quality sequences (Phred quality score below 20). Reads shorter than 40 bases were discarded from further analysis. These pre-processing steps were performed using cutadapt version 1.10 ([60]). Image analysis and base calling were performed using RTA 2.7.7 and bcl2fastq2.17.1.14. Adapter dimer reads were removed using DimerRemover (https://sourceforge.net/projects/dimerremover/). The quality of the RNAseq reads was examined using FastQC 0.11.2 (http://www.bioinformatics.babraham.ac.uk/projects/fastqc/) and FastQScreen 0.5.1 (https://www.bioinformatics.babraham.ac.uk/projects/fastq_screen/). Reads were mapped onto the ASM254v2 assembly of Candida glabrata genome using STAR version 2.5.3a ([61]). Gene expression quantification was performed from uniquely aligned reads using htseq-count version 0.6.1p1 ([62]), with annotations from Ensembl fungi version 50 and union mode. Only non-ambiguously assigned reads have been retained for further analyses. Read counts were normalized across samples with the median-of-ratios method ([63]). Comparisons were implemented in the Bioconductor package DESeq2 version 1.16.1 using the test for differential expression ([64]). Genes with no P-value corresponded to genes with high Cook’s distance that were filtered out. P-values were adjusted for multiple testing using the Benjamini and Hochberg method ([65]). Genes with no adjusted P-value correspond to genes filtered out in the independent filtering step in order to remove reads from genes that have no or little chance of showing evidence of significant differential expression.

c1ccc(-c2cccc(-c3ccccn3)n2)nc1 [2,2′:6′,2′′-terpyridine]
Log2 Fold-Change (TSA1 CAGL0K06259g): 1.052
Log2 Fold-Change (ZPR1 CAGL0K00759g): 0.6092
Regulation Status (gene CAGL0F07029g MET13): Downregulated
Regulation Status (gene CAGL0F07513g): Downregulated
Regulation Status (gene CAGL0F08481g): Downregulated
Regulation Status (gene CAGL0F08503g): Downregulated
Regulation Status (gene CAGL0F09163g): Downregulated
Regulation Status (gene CAGL0G01903g MET1): Downregulated
Regulation Status (gene CAGL0G02695g): Downregulated
Regulation Status (gene CAGL0G03619g): Downregulated
Regulation Status (gene CAGL0G03861g): Downregulated
Regulation Status (gene CAGL0G03883g): Downregulated
Regulation Status (gene CAGL0G03905g): Downregulated
Regulation Status (gene CAGL0G06050g): Downregulated
Regulation Status (gene CAGL0G06402g): Downregulated
Regulation Status (gene CAGL0G06600g): Downregulated
Regulation Status (gene CAGL0G06732g): Downregulated
Regulation Status (gene CAGL0G07711g): Downregulated
Regulation Status (gene CAGL0G08712g KGD1): Downregulated
Regulation Status (gene CAGL0G09581g): Downregulated
Regulation Status (gene CAGL0G10131g): Downregulated
Regulation Status (gene CAGL0G10153g): Downregulated
Regulation Status (gene CAGL0H02365g): Downregulated
Regulation Status (gene CAGL0H02491g): Downregulated
Regulation Status (gene CAGL0H02541g): Downregulated
Regulation Status (gene CAGL0H03531g MNP1): Downregulated
Regulation Status (gene CAGL0H03795g LEU2): Downregulated
Regulation Status (gene CAGL0H03993g CIT1): Downregulated
Regulation Status (gene CAGL0H05775g): Downregulated
Regulation Status (gene CAGL0H05797g): Downregulated
Regulation Status (gene CAGL0H06732g): Downregulated
Regulation Status (gene CAGL0H06743g): Downregulated
Regulation Status (gene CAGL0H07023g): Downregulated
Regulation Status (gene CAGL0H08283g HSP10): Downregulated
Regulation Status (gene CAGL0H09306g): Downregulated
Regulation Status (gene CAGL0H09328g): Downregulated
Regulation Status (gene CAGL0H10076g): Downregulated
Regulation Status (gene CAGL0I00924g): Downregulated
Regulation Status (gene CAGL0I01276g): Downregulated
Regulation Status (gene CAGL0I01298g): Downregulated
Regulation Status (gene CAGL0I01408g CYC1): Downregulated
Regulation Status (gene CAGL0I01496g): Downregulated
Regulation Status (gene CAGL0I01848g): Downregulated
Regulation Status (gene CAGL0I02728g): Downregulated
Regulation Status (gene CAGL0I03190g RIP1): Downregulated
Regulation Status (gene CAGL0I04180g AMT1): Downregulated
Regulation Status (gene CAGL0I04994g MET6): Downregulated
Regulation Status (gene CAGL0I05280g): Downregulated
Regulation Status (gene CAGL0I05698g): Downregulated
Regulation Status (gene CAGL0I06270g): Downregulated
Regulation Status (gene CAGL0I06644g): Downregulated
Regulation Status (gene CAGL0I06831g): Downregulated
Regulation Status (gene CAGL0I06985g): Downregulated
Regulation Status (gene CAGL0I07969g): Downregulated
Regulation Status (gene CAGL0I08305g): Downregulated
Regulation Status (gene CAGL0I08503g): Downregulated
Regulation Status (gene CAGL0I08767g): Downregulated
Regulation Status (gene CAGL0I09009g): Downregulated
Regulation Status (gene CAGL0I09262g): Downregulated
Regulation Status (gene CAGL0I09812g): Downregulated
Regulation Status (gene CAGL0I10923g): Downregulated
Regulation Status (gene CAGL0J00429g COX6): Downregulated
Regulation Status (gene CAGL0J00847g SDH1): Downregulated
Regulation Status (gene CAGL0J01463g): Downregulated
Regulation Status (gene CAGL0J01699g): Downregulated
Regulation Status (gene CAGL0J02090g): Downregulated
Regulation Status (gene CAGL0J03806g): Downregulated
Regulation Status (gene CAGL0J04026g): Downregulated
Regulation Status (gene CAGL0J04268g): Downregulated
Regulation Status (gene CAGL0J04554g): Downregulated
Regulation Status (gene CAGL0J04884g): Downregulated
Regulation Status (gene CAGL0J05302g): Downregulated
Regulation Status (gene CAGL0J06380g): Downregulated
Regulation Status (gene CAGL0J06490g): Downregulated
Regulation Status (gene CAGL0J06820g): Downregulated
Regulation Status (gene CAGL0J08316g): Downregulated
Regulation Status (gene CAGL0J09680g): Downregulated
Regulation Status (gene CAGL0J09790g): Downregulated
Regulation Status (gene CAGL0J11484g DUG3): Downregulated
Regulation Status (gene CAGL0J11682g): Downregulated
Regulation Status (gene CAGL0K00110g AWP2): Downregulated
Regulation Status (gene CAGL0K02409g): Downregulated
Regulation Status (gene CAGL0K02893g): Downregulated
Regulation Status (gene CAGL0K03663g): Downregulated
Regulation Status (gene CAGL0K04279g SCM4): Downregulated
Regulation Status (gene CAGL0K06677g MET8): Downregulated
Regulation Status (gene CAGL0K06853g): Downregulated
Regulation Status (gene CAGL0K07315g): Downregulated
Regulation Status (gene CAGL0K07678g): Downregulated
Regulation Status (gene CAGL0K08184g CCP1): Downregulated
Regulation Status (gene CAGL0K08668g MET28): Downregulated
Regulation Status (gene CAGL0K08800g ADI1): Downregulated
Regulation Status (gene CAGL0K09218g): Downregulated
Regulation Status (gene CAGL0K10120g): Downregulated
Regulation Status (gene CAGL0K10868g CTA1): Downregulated
Regulation Status (gene CAGL0K10956g): Downregulated
Regulation Status (gene CAGL0K10978g): Downregulated
Regulation Status (gene CAGL0K12100g): Downregulated
Regulation Status (gene CAGL0K12958g): Downregulated
Regulation Status (gene CAGL0L00429g): Downregulated
Regulation Status (gene CAGL0L00759g HIS1): Downregulated
Regulation Status (gene CAGL0L00803g): Downregulated
